From US20240216343A1, “ENDOTHELIAL IK AND SK CHANNEL ACTIVATION TO TREAT PULMONARY HYPERTENSION” (UNIVERSITY OF VIRGINIA PATENT FOUNDATION, priority 2023, published 2024)

Tested on: endothelial IK/SK channels
Experiment: Whole-cell patch-clamp in freshly isolated ECs from small PAs
Format: cell-based, mouse
Conditions: NS309 1 μmol/L; 250-ms voltage ramp −100 to +50 mV; ECs from N and Su+CH mice
Method: ECs were freshly isolated from PAs following a previously established protocol (21, 24). […] Worthington Biochemical Corporation; Lakewood; NJ; USA) for 30 minutes at 37° C. With this protocol for endothelial cell isolation, more than 95% of cells are CD31-positive. Whole-cell currents were measured at room temperature using conventional whole-cell patch-clamp electrophysiology. The bath solution consisted of 10 mmol/L HEPES, 134 mmol/L NaCl, 6 mmol/L KCl, 2 mmol/L CaCl2), 1 mmol/L MgCl2 hexahydrate, and 7 mmol/L dextrose (adjusted to pH 7.4 with NaOH). […] The pipette solution for conventional patch clamp consisted of 10 mmol/L HEPES, 123.2 mmol/L KCl, 10 mmol/L NaCl, 5.5 mmol/L MgCl2, 0.2 mmol/L CaCl2) and 5 mmol/L HEDTA (adjusted to pH 7.2 with 16.8 mm KOH) and contained 3 μm free-Ca^2+ and 1 mmol/L free-Mg^2+, as calculated using the Max-Chelator program (Chris Patton; Stanford University; Stanford; CA; USA). […] Data were acquired using a Multiclamp 700B amplifier connected to a Digidata 1550B system and analyzed using Clampfit 11.1 software (Molecular Devices, San Jose, CA, USA). […] IK/SK channel currents induced by the IK/SK channel agonist NS309 (1 μmol/L) were recorded following application of a 250-ms voltage ramp from -100 mV to +50 mV. […]

In the case of `O=C1Nc2c(ccc(Cl)c2Cl)C1=NO` [NS309, 6,7-dichloro-1H-indole-2,3-dione 3-oxime], the “Outward currents at 0 mV in ECs, N vs Su+CH” value was “not different between ECs from N and Su+CH groups”.
